Activity calls are given as the source filed them. The calls are words filed in the database; no cut-off is given here.
Target: T1, Nucleotide-binding oligomerization domain-containing protein 1 (Homo sapiens) (UniProt Q9Y239)
T1 sequence (whole entry): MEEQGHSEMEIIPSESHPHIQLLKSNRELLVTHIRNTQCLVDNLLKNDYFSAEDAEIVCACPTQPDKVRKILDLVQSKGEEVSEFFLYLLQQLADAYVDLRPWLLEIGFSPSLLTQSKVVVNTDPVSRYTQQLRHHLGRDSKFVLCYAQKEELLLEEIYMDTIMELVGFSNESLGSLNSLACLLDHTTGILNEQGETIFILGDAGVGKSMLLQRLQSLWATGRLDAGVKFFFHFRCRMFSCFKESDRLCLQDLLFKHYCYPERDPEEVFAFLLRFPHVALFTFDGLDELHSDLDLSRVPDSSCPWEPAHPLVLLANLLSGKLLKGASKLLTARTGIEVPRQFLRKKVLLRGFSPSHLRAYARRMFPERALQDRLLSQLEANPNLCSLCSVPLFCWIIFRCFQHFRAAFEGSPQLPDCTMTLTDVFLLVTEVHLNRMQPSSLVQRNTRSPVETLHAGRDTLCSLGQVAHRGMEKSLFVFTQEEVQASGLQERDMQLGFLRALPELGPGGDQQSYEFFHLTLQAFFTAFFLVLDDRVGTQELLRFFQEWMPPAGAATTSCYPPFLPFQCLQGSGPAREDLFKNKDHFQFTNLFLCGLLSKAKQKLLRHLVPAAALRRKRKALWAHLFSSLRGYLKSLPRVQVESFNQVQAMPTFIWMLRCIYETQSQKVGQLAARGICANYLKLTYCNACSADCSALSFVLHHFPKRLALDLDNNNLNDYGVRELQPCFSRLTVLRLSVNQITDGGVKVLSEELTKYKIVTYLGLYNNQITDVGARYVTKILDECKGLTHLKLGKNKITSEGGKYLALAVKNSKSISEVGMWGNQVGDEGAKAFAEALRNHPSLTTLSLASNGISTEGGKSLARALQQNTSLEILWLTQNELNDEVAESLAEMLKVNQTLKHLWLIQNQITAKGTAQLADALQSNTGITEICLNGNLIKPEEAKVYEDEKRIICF
Assay: Modulation of NOD1 (unknown origin)

SMILES: NCCc1cc2c(o1)c(N)nc1ccccc12
- Activity: Active
